The text below walks through data of patent US20170035845A1, “Compositions and Methods for Inhibiting Pro-Inflammatory Cytokine Gene Expression” (The Regents of the University of California, priority 2015, published 2017).

In experiment [1] the test system is THP-1 cells. As to the kind of experiment: Immunoblot analyses of THP-1 cell extracts. It counts as cell-based, human. As to the method:
(§1) Differentiated THP-1 cells (˜8×10^5 cells/2.5 ml medium) were starved in complete medium containing […] for 1 day as above, and fresh 2.5 ml RPMI 1640+1% FBS+P/S was added for 2 hours. For experiments with fresh monocytes, cells (>80% CD14+) were resuspended (˜10^6 cells/nil) in monocyte attachment medium (Promocell, Heidelberg, Germany) in wells of a 12 well plate for 2 hours at 37° C. in 5% CO2. The cells were then washed two times with RPMI medium containing 1% HI FBS and suspended overnight in RPMI medium containing 1% HI FBS. Cells were stimulated with agonists with or without RTD-1 (SEQ ID NO. 1) as described in the figure legends after which cells were washed with PBS and extracts were prepared in cell lysis buffer+1 mM PMSF. Protein content was determined using the BCA method (BioRad, San Diego, Calif.) and extracts resolved on SDS-tricine gels and transferred to nitrocellulose membrane. The membranes were probed with the indicated antibodies and developed using anti-mouse or anti-rabbit HRP conjugated secondary antibodies and detected by chemiluminescence. A phosphoprotein antibody array (Phospho-MAPK™; R&D systems Minneapolis, Minn.) was used to analyze activation of phosphoprotein kinases. Differentiated THP-1 cells (1.6×10^6 cells) were treated with 100 ng/ml LPS, 10 μg/ml RTD-1 (SEQ ID NO. 1), 100 ng/ml LPS+10 μg/ml RTD-1, or vehicle for 30 minutes. Arrays were probed with 200 μg of cell extract protein and chemiluminescence of spots from arrays or bands from western blotting was quantified using NIH ImageJ software, background subtracted, normalized and plotted.
In general terms: In western blotting, separated proteins are transferred to a membrane and probed.

Experiment [2] relates to primary human monocytes. As to the kind of experiment: Immunoblot analyses of primary human monocyte extracts. It counts as cell-based. As for the experimental part: EDTA-anticoagulated blood was incubated with human monocyte enrichment cocktail (Stem Cell Technologies, Vancouver, BC, Canada) for 20 minutes and layered on Ficoll Paque™ in a Sepmate™ 50 tube (Stem Cell Tech). The cells were centrifuged at 1200×g for 10 minutes and the monocyte containing layer of cells was isolated, washed with PBS containing 2% HI FBS and 1 mM EDTA.
as §1

[3] abbreviates: LPS 100 ng/ml, RTD-1 10 μg/ml, 30 minutes.

Take “RTD-1: rhesus theta-defensin 1, macrocyclic tri-disulfide θ-defensin peptide, SEQ ID NO. 1, synthetic (cyclo(GFCRCLCRRGVCRCICTR); disulfide (positions not given here); not fully specified (bridges); also: three disulfides, places not given here; listed as Macaca mulatta)”: in experiment [1] (LPS 100 ng/ml, RTD-1 10 μg/ml), the JNK1/2 kinase phosphorylation result is recorded as “inhibition”, the “degradation of IκBα in LPS stimulated macrophages” value is listed as “effective in blocking” and the “p38 MAP kinase phosphorylation” value is given as “inhibition”. The “P-Akt levels remained elevated” value in experiment [1] (RTD-1 10 μg/ml alone, for at least 4 hours) is on record as ~2.5 fold. In experiment [1] (RTD-1 10 μg/ml alone, within 10 minutes of peptide treatment), the “increase in P-Akt” value worked out at 6.5 fold. For the same substance, in experiment [1] (RTD-1 alone), the “IκBα levels and phosphorylation of p38 MAP and JNK1/2 kinases” value was “no effect”. In experiment [2] (setting [3]), the “degradation of IκBα in LPS stimulated monocytes” value is reported as “reduced” and the “p38 MAP kinase phosphorylation in LPS stimulated monocytes” value was “inhibited”. Further, the “degradation of IκBα” value in experiment [2] (RTD-1 alone, monocytes) was “did not induce”. For the same substance, the “phosphorylation of Akt” value in experiment [2] (monocytes treated with LPS and RTD-1 or RTD-1 alone, compared to control cells) is on record as “increased phosphorylation”. For the same substance, in experiment [2] (peptide alone, monocytes), the “p38 MAP kinase phosphorylation” value is “no effect”.
